Test results from US20220387358A1, “CERAMIDE ANALOG SACLAC MODULATES SPHINGOLIPID LEVELS AND MCL-1 SPLICING TO INDUCE APOPTOSIS IN ACUTE MYELOID LEUKEMIA” (University of Virginia Patent Foundation, priority 2019, published 2022).
Several values for one entry are separate records, joined by “and”; a condition that tells them apart may be missing. Equal entries are not always repeated.

Legend:
[1] = test system: OCI-AML2 cells; assay: Western blot of SF3B1, Mcl-1S and Mcl-1L protein expression; format: cell-based, human; settings: 24 hours
Method: Cells were plated at 2.5×10^5 cells per ml in 6-well plates and treated with drug, vehicle or siRNA at the indicated doses and time points. Cells were harvested, washed with PBS and lysed prior to preparation of protein extracts for western blotting.
More particularly, cells were lysed with RIPA buffer (#R0278, Sigma, St. Louis, Mo., United States of America) containing phosphatase inhibitor cocktails 2 and 3 (Sigma #P5726, #P0044) and protease inhibitor cocktail (#P8340, Sigma, St. Louis, Mo., United States of America). Protein was quantified using a bicinchoninic acid (BCA) protein assay kit (#23225, Pierce, Waltham, Mass., United States of America). Samples were resolved on a Bolt 4-12% SDS-PAGE gel (#NW00082, ThermoFisher Scientific, Waltham, Mass., United States of America) and transferred to PVDF membrane (#170-4274, Bio-Rad Laboratories, Hercules, Calif., United States of America). Antibodies were obtained from Cell Signaling Technology (Danvers, Mass., United States of America) unless indicated otherwise. Primary antibodies used were: Mcl-1 (#5453, RRID #AB 10694494), SF3B1 (#14434, RRID #AB 2798479), β-actin (#3700, RRID #AB_2242334) and AC (BD Biosciences #612302 (San Jose, California, United States of America), RRID #AB_399617). Secondary antibodies used were HRP-linked goat anti-mouse (#7076, RRID #AB_330924) or goat anti-rabbit IgG (#7074, RRID # AB_2099233). Clarity Max Western ECL Substrate (#1705062, Bio-Rad Laboratories, Hercules, Calif., United States of America) was added to visualize relative protein expression by chemiluminescence using the Bio-Rad ChemiDoc MP imaging system (Bio-Rad Laboratories, Hercules, Calif., United States of America). Quantification was done using Bio-Rad ImageLab 6.0.1 software (Bio-Rad Laboratories, Hercules, Calif., United States of America). For quantification, bands were normalized to β-actin as a loading control.

[2] = test system: human AML cell lines; assay: Sphingolipid analysis by LC-ESI-MS/MS (S1P, total ceramide); format: cell-based; settings: 2.5 μM, 24 hours
Method: Lipid extraction and analysis was done using liquid chromatography-electrospray ionization-tandem mass spectrometry (LC-ESI-MS/MS) as previously described (22). Cells were plated at 5 million cells per 6 ml and treated with SACLAC or DMSO for 24 hours. Lipids were extracted from cell pellets using an azeotrophic mix of isopropanol: water: ethyl acetate (3:1:6; v:v:v). Internal standards (50 pmol of d17 long-chain bases and C12 acylated sphingolipids) were added to samples at the onset of the extraction procedure. Extracts were separated on a Waters I-class Acquity UPLC chromatography system (Waters Corporation, Milford, Mass., United States of America). Mobile phases were (A) 60:40 water: acetonitrile and (B) 90:10 isopropanol:methanol with both mobile phases containing 5 mM ammonium formate and 0.1% formic acid. A Waters C18 CSH 2.1 mm ID×10 cm column maintained at 65° C. was used for the separation of the sphingoid bases, 1-phosphates, and acylated sphingolipids. The eluate was analyzed with an inline Waters TQ-S mass spectrometer (Waters Corporation, Milford, Mass., United States of America) using multiple reaction monitoring. All data reported are based on monoisotopic mass and are represented as pmol/mg protein.

[3] = molecular target: T1, acid ceramidase (AC) (Homo sapiens, UniProt Q13510); assay: Acid ceramidase activity assay (RBM14C12 fluorogenic substrate) in human AML cell lines; format: cell-based; settings: SACLAC 2.5 μM, 24-hour treatment
T1 construct: endogenous in cells; host or cells: HL-60/VCR, THP-1 and OCI-AML2 human AML cell lines
T1 sequence (Q13510 143-395 limits assumed): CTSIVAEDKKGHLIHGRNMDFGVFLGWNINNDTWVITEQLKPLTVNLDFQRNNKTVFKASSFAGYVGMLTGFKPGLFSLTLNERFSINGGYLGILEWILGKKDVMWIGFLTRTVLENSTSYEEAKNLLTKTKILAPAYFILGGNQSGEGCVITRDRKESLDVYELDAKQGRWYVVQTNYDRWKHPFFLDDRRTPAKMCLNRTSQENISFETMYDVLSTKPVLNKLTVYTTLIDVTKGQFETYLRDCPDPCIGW
T1 sequence (Q13510 22-142 limits assumed): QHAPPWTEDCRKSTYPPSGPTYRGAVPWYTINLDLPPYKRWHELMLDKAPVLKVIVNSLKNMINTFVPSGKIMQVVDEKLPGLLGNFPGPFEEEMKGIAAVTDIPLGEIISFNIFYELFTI
Method: Cells were seeded at 2×10^4 cells per well in 50 μl Acid ceramidase activity was measured at 24 hours using the RBM14C12 fluorogenic substrate as previously described (22,34).

[4] = test system: PBMCs from healthy donors; assay: Cell viability of normal samples ([…]-GLO); format: cell-based; settings: Homo sapiens, PBMC; PBMCs (n=6); 24 hours
Excerpt: Healthy donor samples: PBMCs from healthy donors were enriched using the Ficoll-Paque gradient separation method. CD34+PBMCs mobilized with G-CSF were obtained from the University of Virginia Health System Blood Bank (Charlottesville, Va., United States of America). CD34+ cells were isolated from PBMCs with a Human CD34 MicroBead Kit (#130-046, Miltenyi Biotec, Bergisch Gladbach, Germany) using the autoMACS Pro Separator (#130-092-545, Miltenyi Biotec, Bergisch Gladbach, Germany). For cell viability, cell lines were plated at 2.5×10^4 cells per well in a 96-well plate and treated with […] or DMSO vehicle (0.4% of total volume) for the indicated time points and doses. […] Conversion of MTS to formazan product was measured by absorbance at 490 nm using a BioTek Cytation 3 plate reader (BioTeck, Winooski, Vt., United States of America). Absorbance was normalized to DMSO control, which was defined as 100% viability. […] After 15 minutes, luminescence was read on a BioTek Cytation 3 plate reader (BioTek, Winooski, Vt., United States of America). Absorbance was normalized to DMSO control, which was defined as 100% viability.

Structure (SMILES): CCCCCCCCCCCCCCC[C@@H](O)[C@H](CO)NC(=O)CCl [SACLAC, N-[(2S,3R)-1,3-dihydroxyoctadecan-2-yl]2-chloroacetamide]
- SF3B1 protein expression ([1]; SACLAC): reduced
- splicing factor SRSF1 ([1]; SACLAC): not affected
- increase in the ratio of Mcl-1S to Mcl-1L ([1]; increasing doses of SACLAC): 3 fold
- upregulation of the Mcl-1S isoform ([1]; increasing doses of SACLAC): 10 fold
- increase in total ceramide ([2]; HL-60/VCR, THP-1, OCI-AML2): 2.5 fold and 2- to 3 fold
- S1P content reduced by ([2]; HL-60/VCR): 87%
- S1P levels ([2]; OCI-AML2): below the limit of detection
- S1P levels ([2]; THP-1): below the limit of detection
- AC activity reduced by ([3]; HL-60/VCR): 98%
- AC activity reduced by ([3]; OCI-AML2): 100%
- AC activity reduced by ([3]; THP-1): 71%
- EC50 [4]: 7.4 µM
